PMC8597757, “Pharmacokinetic and Safety Profile of the Novel HIV Nonnucleoside Reverse Transcriptase Inhibitor MK-8507 in Adults without HIV” (Antimicrobial Agents and Chemotherapy, 2021)
“Also recorded” adds a separate entry of the source.

Tests used:
HIV-1 = assay: PK target of Ctrough >=6 x IC50 (in vitro potency); details: Human immunodeficiency virus 1; Ctrough target expected to achieve antiviral efficacy; meta-analysis ref 20; read-out: 6 × IC50 threshold (PK target for C168hr)
Method: The plasma PK profile of MK-8507 is supportive of QW administration. Following oral administration, MK-8507 is readily absorbed, with a Tmax of ∼2 to 7 h followed by a biphasic decline in plasma concentration. […] Concentration at trough is the PK parameter generally associated with antiviral efficacy of HIV treatment ([20][–][23]). Based on a meta-analysis of Ctrough normalized by in vitro potency and viral load data from other NNRTIs ([20]), a PK target of Ctrough ≥6 × 50% inhibitory concentration (IC50) is a threshold expected to achieve antiviral efficacy as part of combination therapy. […] These PK results support further development of MK-8507 as a QW oral agent for treatment of HIV administered as part of a complete treatment regimen together with islatravir.

[1] = Cross-study formulation comparison, 400 mg tablet vs suspension; format: in vivo, human
Method: Statistical analyses were performed using SAS software version 9.3 (SAS Institute Inc., Cary, NC, USA). […] The least-squares geometric mean (GM) and corresponding 95% CIs obtained from the models were exponentiated to provide estimates for the population GMs and CIs on the original scales. To assess the effect of food, 90% CIs were calculated for the GMR (fed/fasted) of MK-8507 AUC0-∞, Cmax, and C168hr. […] The point estimates and the corresponding 95% CIs were obtained from the model for GM of each formulation; the GMR and 90% CIs comparing tablet to suspension were estimated using the model.

[2] = Dose proportionality assessment of single oral doses 2 to 1,200 mg; format: in vivo, human
From the text: The AUC0-168hr and […] group was not statistically significant at the 0.05 level and was therefore omitted from the final model. An overall slope was estimated across all groups.

[3] = Multiple-dose (once weekly for 3 weeks) plasma pharmacokinetics of MK-8507 tablet; format: in vivo, human; details: for AUC(0-t) / concentration at 168 h / Cmax / Tmax / half-life: human, plasma, oral; for AUC(0-t): read-out: AUC0–168 (geometric mean [95% CI]); for concentration at 168 h: read-out: C168hr (geometric mean [95% CI]); for Cmax: read-out: Cmax (geometric mean [95% CI])
Method: MK-8507 in plasma was extracted by protein precipitation and analyzed by reversed-phase chromatographic separation coupled with tandem mass spectrometric detection by Merck & Co., Inc. (West Point, PA, USA). The liquid chromatography-tandem mass spectrometric (LC-MS/MS) system consisted of a Waters Acquity ultraperformance liquid chromatography system (Waters Corporation, Milford, MA, USA) employing a turbo ionspray interface in the negative ion mode. The lower limit of quantitation was 1.0 ng/mL (2.03 nM) with a linear calibration range from 1.0 to 1000 ng/mL. The mean intrarun accuracy was 94.8 to 113% (precision, ≤6.2% coefficient of variation [CV]), and the mean interrun accuracy was 94.4 to 103.0% (precision, ≤8.6% CV). […] The AUC0-168hr and […] group was not statistically significant at the 0.05 level and was therefore omitted from the final model. An overall slope was estimated across all groups.

[4] = Food effect assessment (100 mg suspension, high-fat meal vs fasted); format: in vivo, human
Method: Study 1 was a 4-period, alternating panel (A and B), rising single-dose trial. Participants in each panel were randomized to receive single rising doses of MK-8507 (n = 6 per panel) or placebo (n = 2 per panel) as an oral suspension. All study drugs were administered after an overnight fast, except in period 4. […] There was a minimum 20-day washout interval between doses within each panel and a 10-day interval between each dosing period. […] MK-8507 in plasma was extracted by protein precipitation and analyzed by reversed-phase chromatographic separation coupled with tandem mass spectrometric detection by Merck & Co., Inc. (West Point, PA, USA). The liquid chromatography-tandem mass spectrometric (LC-MS/MS) system consisted of a Waters Acquity ultraperformance liquid chromatography system (Waters Corporation, Milford, MA, USA) employing a turbo ionspray interface in the negative ion mode. The lower limit of quantitation was 1.0 ng/mL (2.03 nM) with a linear calibration range from 1.0 to 1000 ng/mL. The mean intrarun accuracy was 94.8 to 113% (precision, ≤6.2% coefficient of variation [CV]), and the mean interrun accuracy was 94.4 to 103.0% (precision, ≤8.6% CV). […] Statistical analyses were performed using SAS software version 9.3 (SAS Institute Inc., Cary, NC, USA). […] The least-squares geometric mean (GM) and corresponding 95% CIs obtained from the models were exponentiated to provide estimates for the population GMs and CIs on the original scales.

CYP3A4 = details: preclinical in vitro studies, no reference given; cited from earlier work
[5] = 100 mg tablet once weekly for 3 weeks, n=6
[6] = 200 mg tablet once weekly for 3 weeks, n=5/6
[7] = 400 mg tablet once weekly for 3 weeks, n=6
[8] = 100 mg, 100 mg tablet once weekly, wk 1, n=6
[9] = 100 mg, 100 mg tablet once weekly, wk 3, n=6
[10] = 200 mg, 200 mg tablet once weekly, wk 1, n=5/6
[11] = 200 mg, 200 mg tablet once weekly, wk 3, n=5
[12] = 400 mg, 400 mg tablet once weekly, wk 1, n=6
[13] = 400 mg, 400 mg tablet once weekly, wk 3, n=6
[14] = 100 mg suspension, compared with fasted administration

N#Cc1cc(Cl)cc(Oc2c(C(F)(F)F)ncn(Cc3cc(C(F)(F)F)c(=O)[nH]n3)c2=O)c1 [MK-8507]
IC50 (HIV-1): 0.148 µg/mL
PK target concentration for C168hr (6 × IC50) (HIV-1): 300 nM
reduction of Cmax, tablet compared to suspension ([1]; 400-mg dose): 21%
GMR (90% CI) tablet/suspension, C168hr ([1]; 400-mg single dose): 0.93 (0.66, 1.29)
dose proportionality of pharmacokinetics ([2]; 2 to 1,200 mg): increased dose proportionally; also recorded: approximately dose proportional
Estimate of slope, C168hr as a function of dose ([2]; single oral doses of 2 to 1,200 mg, ln-ln linear mixed-effect model): 0.9932
GMR (accumulation ratio, wk 3/wk 1 [90% CI]) of AUC0–168 [3, 5]: 1.18 (1.12–1.25)
GMR (accumulation ratio, wk 3/wk 1 [90% CI]) of C168hr [3, 5]: 1.14 (0.87–1.50)
GMR (accumulation ratio, wk 3/wk 1 [90% CI]) of Cmax [3, 5]: 1.12 (0.96–1.30)
GMR (accumulation ratio, wk 3/wk 1 [90% CI]) of AUC0–168 [3, 6]: 1.23 (1.16–1.31)
GMR (accumulation ratio, wk 3/wk 1 [90% CI]) of C168hr [3, 6]: 1.22 (0.90–1.65)
GMR (accumulation ratio, wk 3/wk 1 [90% CI]) of Cmax [3, 6]: 1.15 (0.98–1.36)
GMR (accumulation ratio, wk 3/wk 1 [90% CI]) of AUC0–168 [3, 7]: 1.23 (1.16–1.31)
GMR (accumulation ratio, wk 3/wk 1 [90% CI]) of C168hr [3, 7]: 1.21 (0.92–1.59)
GMR (accumulation ratio, wk 3/wk 1 [90% CI]) of Cmax [3, 7]: 1.06 (0.91–1.23)
accumulation with multiple dosing ([3]; QW over 3 weeks, 100-mg, 200-mg, 400-mg doses): minimal accumulation; also recorded: modest accumulation
accumulation GMR (day 36, day 22), C168hr ([3]; QW over 3 weeks, 100-mg, 200-mg, 400-mg doses, range): 1.14 to 1.22
AUC(0-t) [3, 8]: 157 µM·h
concentration at 168 h [3, 8]: 320 nM
Cmax [3, 8]: 2.94 µM
Tmax ([3]; 100 mg, 100 mg tablet once weekly, wk 1, n=6, read-out: Tmax (median [min, max])): 3 h
concentration at 168 h ([3]; 100 mg, 100 mg tablet once weekly, wk 2, n=6): 390 nM
AUC(0-t) [3, 9]: 185 µM·h
half-life ([3]; 100 mg, 100 mg tablet once weekly, wk 3, n=6, read-out: Apparent terminal t½ (geometric mean [%GVC]) (converted)): 2.78 days
concentration at 168 h [3, 9]: 370 nM
Cmax [3, 9]: 3.29 µM
Tmax ([3]; 100 mg, 100 mg tablet once weekly, wk 3, n=6, read-out: Tmax (median [min, max])): 3.03 h
AUC(0-t) [3, 10]: 285 µM·h
concentration at 168 h [3, 10]: 590 nM
Cmax [3, 10]: 4.87 µM
Tmax ([3]; 200 mg, 200 mg tablet once weekly, wk 1, n=5/6, read-out: Tmax (median [min, max])): 5 h
concentration at 168 h ([3]; 200 mg, 200 mg tablet once weekly, wk 2, n=5): 700 nM
AUC(0-t) [3, 11]: 352 µM·h
half-life ([3]; 200 mg, 200 mg tablet once weekly, wk 3, n=5, read-out: Apparent terminal t½ (geometric mean [%GVC]) (converted)): 3.09 days
concentration at 168 h [3, 11]: 720 nM
Cmax [3, 11]: 5.61 µM
Tmax ([3]; 200 mg, 200 mg tablet once weekly, wk 3, n=5, read-out: Tmax (median [min, max])): 4.01 h
AUC(0-t) [3, 12]: 563 µM·h
concentration at 168 h [3, 12]: 1230 nM
Cmax [3, 12]: 10.8 µM
Tmax ([3]; 400 mg, 400 mg tablet once weekly, wk 1, n=6, read-out: Tmax (median [min, max])): 4 h
concentration at 168 h ([3]; 400 mg, 400 mg tablet once weekly, wk 2, n=6): 1110 nM
AUC(0-t) [3, 13]: 694 µM·h
half-life ([3]; 400 mg, 400 mg tablet once weekly, wk 3, n=6, read-out: Apparent terminal t½ (geometric mean [%GVC]) (converted)): 3.05 days
concentration at 168 h [3, 13]: 1490 nM
Cmax [3, 13]: 11.5 µM
Tmax ([3]; 400 mg, 400 mg tablet once weekly, wk 3, n=6, read-out: Tmax (median [min, max])): 4 h
half-life ([3]; 400 mg, 100, 200, 400 mg tablet once weekly, range across doses, read-out: geometric mean apparent t1/2): 2.79 to 3.08 days
Tmax ([3]; 400 mg, 100, 200, 400 mg tablet once weekly, range across doses, read-out: median time of peak concentration postdose): 3 to 5 h
effect of a high-fat meal on MK-8507 pharmacokinetics ([4]; 100 mg suspension): no clinically meaningful effect; also recorded: no meaningful effect on AUC0–∞ or C168hr
change in C168hr by a high-fat meal [4, 14]: no change
decrease of AUC0–∞ by a high-fat meal [4, 14]: ~9%
decrease of Cmax by a high-fat meal [4, 14]: 35%
delay of Tmax by a high-fat meal [4, 14]: ~8 h
AUC(0-inf) ([4]; human, single oral dose 100 mg (fed), suspension, following a high-fat meal, plasma, n=6, read-out: AUC0-∞ (geometric mean [95% CI])): 159 µM·h
AUC(0-t) ([4]; human, single oral dose 100 mg (fed), suspension, following a high-fat meal, plasma, n=6, read-out: AUC0–168 (geometric mean [95% CI])): 126 µM·h
half-life ([4]; human, single oral dose 100 mg (fed), suspension, following a high-fat meal, plasma, n=6, read-out: Apparent terminal t½ (geometric mean [%GVC]) (converted)): 3.02 days
concentration at 168 h ([4]; human, single oral dose 100 mg (fed), suspension, following a high-fat meal, plasma, n=6, read-out: C168hr (geometric mean [95% CI])): 310 nM
Cmax ([4]; human, single oral dose 100 mg (fed), suspension, following a high-fat meal, plasma, n=6, read-out: Cmax (geometric mean [95% CI])): 1670 nM
Tmax ([4]; human, single oral dose 100 mg (fed), suspension, following a high-fat meal, plasma, n=6, read-out: Tmax (median [min, max])): 10 h
GMR fed/fasted, C168hr ([4]; single oral dose 100 mg suspension, high-fat meal vs overnight fast, n=6): 1.02
induction of CYP3A4 expression in vitro (CYP3A4): demonstrated the potential to induce expression of CYP3A4
